In assay [1] the test system is Streptomyces acidiscabies. The assay can be described thus: Antimicrobial activity against Streptomyces acidiscabies ATCC 4900315 assessed as inhibition of aerial mycelial growth at 4 ug/disk after 5 days by paper disk method. The class given is functional. The following applies: for zone of inhibition at 4 µg/disc: ATCC 4900315, 120 h, read-out: DIZ.
Assay [2] relates to Streptomyces scabiei. The assay can be described thus: Antimicrobial activity against Streptomyces scabiei ATCC 4917314 assessed as inhibition of aerial mycelial growth at 4 ug/disk after 5 days by paper disk method. The class given is functional. The following applies: for zone of inhibition at 4 µg/disc: ATCC 4917314, 120 h, read-out: DIZ.
The subject of assay [3] is Streptomyces alboniger. In words: Antimicrobial activity against Streptomyces alboniger IFO 12738 assessed as inhibition of aerial mycelial growth at 4 ug/disk after 5 days by paper disk method. The class given is functional. To be noted: for zone of inhibition at 4 µg/disc: IFO 12738, 120 h, read-out: DIZ.
Assay [4] has as its system Streptomyces acidiscabies. The assay can be described thus: Antimicrobial activity against Streptomyces acidiscabies ATCC 4900315 assessed as inhibition of aerial mycelial growth at 0.04 ug/disk after 5 days by paper disk method. The class given is functional.
The subject of assay [5] is Streptomyces alboniger. The assay can be described thus: Antimicrobial activity against Streptomyces alboniger IFO 12738 assessed as inhibition of aerial mycelial growth at 0.04 ug/disk after 5 days by paper disk method. In kind it is functional, organism-based.
For assay [6], the system named is Streptomyces acidiscabies. The assay can be described thus: Antimicrobial activity against Streptomyces acidiscabies ATCC 4900315 assessed as inhibition of aerial mycelial growth at 0.4 ug/disk after 5 days by paper disk method. The class given is functional. The following applies: for zone of inhibition at 0.4 µg/disc: ATCC 4900315, 120 h, read-out: DIZ.
The test system of assay [7] is Streptomyces scabiei. The assay can be described thus: Antimicrobial activity against Streptomyces scabiei ATCC 4917314 assessed as inhibition of aerial mycelial growth at 0.04 ug/disk after 5 days by paper disk method. The following applies: for zone of inhibition at 0.04 µg/disc: ATCC 4917314, 120 h, read-out: DIZ. The class given is functional.
Assay [8] has as its system Streptomyces alboniger. In words: Antimicrobial activity against Streptomyces alboniger IFO 12738 assessed as inhibition of aerial mycelial growth at 0.4 ug/disk after 5 days by paper disk method. The class given is functional. The following applies: for zone of inhibition at 0.4 µg/disc: IFO 12738, 120 h, read-out: DIZ.
Assay [9] deals with Streptomyces scabiei. In words: Antimicrobial activity against Streptomyces scabiei ATCC 4917314 assessed as inhibition of aerial mycelial growth at 0.40 ug/disk after 5 days by paper disk method. The class given is functional. To be noted: for zone of inhibition at 0.4 µg/disc: ATCC 4917314, 120 h, read-out: DIZ.
The subject of assay [10] is Streptomyces scabiei. The assay can be described thus: Antimicrobial activity against Streptomyces scabiei ATCC 4917314 assessed as inhibition of growth at 0.4 ug/disk after 5 days by paper disk method. The class given is functional. To be noted: ATCC 4917314, 120 h, read-out: DIZ.
The test system of assay [11] is Streptomyces alboniger. The assay can be described thus: Antimicrobial activity against Streptomyces alboniger IFO 12738 assessed as inhibition of growth at 4 ug/disk after 5 days by paper disk method. The class given is functional. The following applies: IFO 12738, 120 h, read-out: DIZ.
Assay [12] deals with Streptomyces acidiscabies. The assay can be described thus: Antimicrobial activity against Streptomyces acidiscabies ATCC 4900315 assessed as inhibition of growth at 4 ug/disk after 5 days by paper disk method. In kind it is functional. To be noted: for zone of inhibition at 4 µg/disc: ATCC 4900315, 120 h, read-out: DIZ.
Assay [13] has as its system Streptomyces scabiei. The assay can be described thus: Antimicrobial activity against Streptomyces scabiei ATCC 4917314 assessed as inhibition of growth at 4 ug/disk after 5 days by paper disk method. To be noted: ATCC 4917314, 120 h, read-out: DIZ. In kind it is functional.

Calls of active or inactive are those of the source. The calls are words filed in the database; no cut-off is given here.

The results in this text go back to ChEMBL document CHEMBL3044676, “Effect of Antibiotics on Formation of Aerial Mycelium and Production of Phytotoxins in Streptomyces spp” (2003).

With `CO[C@@H]1[C@H](O)C[C@@H](O[C@@H]2C[C@H](Oc3cc4cc5c(c(O)c4c(O)c3C)C(=O)[C@@H](O[C@H]3C[C@@H](O[C@H]4C[C@@H](O[C@H]6C[C@](C)(O)[C@@H](OC(C)=O)[C@H](C)O6)[C@H](O)[C@@H](C)O4)[C@H](O)[C@@H](C)O3)[C@H]([C@H](OC)C(=O)[C@@H](O)[C@@H](C)O)C5)O[C@H](C)[C@@H]2OC(C)=O)O[C@@H]1C` [CHROMOMYCIN A3], the zone of inhibition at 4 µg/disc in assay [1] was found to be 26 mm; in the assay with Streptomyces scabiei [2] it was 11 mm. In addition, the “diameter of the inhibition zone (DIZ)” value in the assay on Streptomyces alboniger [3], in the assay on Streptomyces alboniger [5], in the assay with Streptomyces scabiei [7], in the assay on Streptomyces alboniger [8] and with Streptomyces scabiei [9] was “inactive” in each case. In [4] (ATCC 4900315, 120 h, read-out: DIZ), the zone of inhibition at 0.04 µg/disc was 13 mm. Also, the zone of inhibition at 0.4 µg/disc in assay [6] turned out to be 19 mm.

On to `C[C@@H]1O[C@@H]1P(=O)(O)O` [FOSFOMYCIN], for which the “diameter of the inhibition zone (DIZ)” value (in assay [1]; with Streptomyces alboniger [3]; in assay [4]; in the assay on Streptomyces alboniger [5]; in assay [6]; in the assay with Streptomyces alboniger [8]) was “inactive” throughout. In addition, the zone of inhibition at 4 µg/disc in the assay with Streptomyces scabiei [2] worked out at 17 mm. Further, in the assay on Streptomyces scabiei [7], the zone of inhibition at 0.04 µg/disc is 16 mm. In addition, the zone of inhibition at 0.4 µg/disc with Streptomyces scabiei [9] was found to be 16 mm.

For the compound `CO[C@@H]1[C@@H](O[C@@H]2O[C@H](C)[C@@H](O[C@H]3C[C@@](C)(O)[C@@H](OC(=O)CC(C)C)[C@H](C)O3)[C@H](N(C)C)[C@H]2O)[C@@H](CC=O)C[C@@H](C)[C@@H](O)/C=C/C=C/C[C@@H](C)OC(=O)C[C@H]1OC(C)=O` [JOSAMYCIN], the zone of inhibition at 4 µg/disc in assay [1] is 17 mm; in the assay on Streptomyces alboniger [11], 14 mm; in the assay with Streptomyces scabiei [2], 29 mm; with Streptomyces alboniger [3], 15 mm; in assay [12] it was 10 mm; in the assay with Streptomyces scabiei [13], 21 mm. Further, the zone of inhibition at 0.4 µg/disc with Streptomyces scabiei [10] worked out at 11 mm; in assay [6], 13 mm; with Streptomyces scabiei [9], 17 mm. The “diameter of the inhibition zone (DIZ)” value (in assay [4]; in the assay with Streptomyces alboniger [5]; in the assay on Streptomyces alboniger [8]) was “inactive” in each case. Also, the zone of inhibition at 0.04 µg/disc in the assay on Streptomyces scabiei [7] stood at 15 mm.

On to `CC1(C)S[C@@H]2[C@H](NC(=O)[C@H](N)c3ccccc3)C(=O)N2[C@H]1C(=O)O` [AMPICILLIN], for which the zone of inhibition at 4 µg/disc (in [1]; with Streptomyces scabiei [2]) was 16 mm in each case. The “diameter of the inhibition zone (DIZ)” value (in assay [4]; in the assay with Streptomyces alboniger [5]; in assay [6]; in assay [12]; in the assay on Streptomyces scabiei [7]; in the assay with Streptomyces alboniger [8]) was “inactive” throughout. Moreover, the “diameter of the inhibition zone (DIZ)” value in the assay with Streptomyces scabiei [9] was “inactive”.

Take `N=C(N)NCC(O)CC(O)(C(=O)O)[C@@H]1O[C@@H](N2C=C(CO)C(N)=NC2O)C=C[C@@H]1NC(=O)[C@@H](N)CO` (stereo partly specified) [MILDIOMYCIN]: the values for the zone of inhibition at 4 µg/disc in [1] and in [12] were 28 mm and 22 mm, respectively. Further, the “diameter of the inhibition zone (DIZ)” value (in the assay with Streptomyces scabiei [2]; in the assay on Streptomyces alboniger [3]; in assay [4]; with Streptomyces alboniger [5]; in the assay with Streptomyces scabiei [7]; in the assay with Streptomyces alboniger [8]) was “inactive” throughout. In addition, the results for the zone of inhibition at 0.4 µg/disc (in assay [6]; in the assay with Streptomyces scabiei [9]) were 11 mm and 12 mm, respectively.

On to `CN(C)[C@@H]1C(O)=C(C(N)=O)C(=O)[C@@]2(O)C(O)=C3C(=O)c4c(O)cccc4[C@@](C)(O)[C@H]3[C@H](O)[C@@H]12` [OXYTETRACYCLINE], for which the “diameter of the inhibition zone (DIZ)” value (in [1]; in the assay on Streptomyces alboniger [3]; in [4]; in the assay with Streptomyces alboniger [5]; in the assay on Streptomyces alboniger [8]) was “inactive” in each case. In addition, the results for the zone of inhibition at 4 µg/disc (in the assay on Streptomyces scabiei [2]; in [12]; in the assay on Streptomyces scabiei [13]) were 37 mm, 34 mm and 13 mm, respectively. The zone of inhibition at 0.4 µg/disc in assay [6] was 16 mm; with Streptomyces scabiei [9], 13 mm. For the same compound, the zone of inhibition at 0.04 µg/disc with Streptomyces scabiei [7] came out at 10 mm.

Turning to `COc1ccc(C[C@H](N)C(=O)N[C@H]2[C@@H](O)[C@H](n3cnc4c(N(C)C)ncnc43)O[C@@H]2CO)cc1` [PUROMYCIN], in [1], the zone of inhibition at 4 µg/disc is 20 mm. The “diameter of the inhibition zone (DIZ)” value (in the assay on Streptomyces scabiei [2]; in the assay with Streptomyces alboniger [3]; in assay [4]; in the assay on Streptomyces alboniger [5]; in assay [6]; in the assay with Streptomyces scabiei [7]) was “inactive” throughout. Besides, the “diameter of the inhibition zone (DIZ)” value with Streptomyces alboniger [8] and in the assay on Streptomyces scabiei [9] was “inactive” in each case.

In the case of `O=C(N[C@H](CO)[C@H](O)c1ccc([N+](=O)[O-])cc1)C(Cl)Cl` [CHLORAMPHENICOL], the zone of inhibition at 4 µg/disc was determined as 10 mm in assay [1]; 16 mm in the assay on Streptomyces alboniger [11]; 29 mm in the assay with Streptomyces scabiei [2]; 44 mm in the assay on Streptomyces alboniger [3]; 15 mm with Streptomyces scabiei [13]. Also, the “diameter of the inhibition zone (DIZ)” value (in assay [4]; in the assay on Streptomyces alboniger [5]; in [6]; in the assay on Streptomyces scabiei [7]; with Streptomyces alboniger [8]) was “inactive” each time. Moreover, the zone of inhibition at 0.4 µg/disc in the assay on Streptomyces scabiei [9] was 13 mm.

In the case of `CCC[C@@H]1C[C@@H](C(=O)N[C@@H]([C@H]2O[C@H](SC)[C@H](O)[C@@H](O)[C@H]2O)[C@@H](C)O)N(C)C1` [LINCOMYCIN], the “diameter of the inhibition zone (DIZ)” value in assay [1], in assay [4] and in assay [6] was “inactive” in each case. In addition, the zone of inhibition at 4 µg/disc was determined as 12 mm in the assay with Streptomyces alboniger [11], 40 mm in the assay on Streptomyces scabiei [2] and 40 mm with Streptomyces alboniger [3]. The zone of inhibition at 0.04 µg/disc with Streptomyces scabiei [7] is 20 mm. The results for the zone of inhibition at 0.4 µg/disc in the assay with Streptomyces alboniger [8] and in the assay on Streptomyces scabiei [9] were 18 mm and 34 mm, respectively.

With `CO[C@@H]1[C@@H](OC(N)=O)[C@@H](O)[C@H](Oc2ccc3c(O)c(NC(=O)c4ccc(O)c(CC=C(C)C)c4)c(=O)oc3c2C)OC1(C)C` [NOVOBIOCIN], the zone of inhibition at 4 µg/disc is 39 mm in assay [1]; 21 mm in the assay with Streptomyces alboniger [11]; 44 mm with Streptomyces scabiei [2]; 18 mm in [12]; 26 mm in the assay on Streptomyces scabiei [13]. In addition, the zone of inhibition at 0.4 µg/disc with Streptomyces scabiei [10] amounted to 17 mm; in assay [6], 14 mm; in the assay with Streptomyces alboniger [8], 11 mm; in the assay with Streptomyces scabiei [9], 28 mm. Besides, the “diameter of the inhibition zone (DIZ)” value (in [4]; with Streptomyces alboniger [5]; in the assay with Streptomyces scabiei [7]) was “inactive” throughout.

In the case of `CN(CC[C@H](N)CC(=O)N[C@H]1CC[C@H](n2ccc(N)nc2=O)O[C@@H]1C(=O)O)C(=N)N` [BLASTADIN S], the zone of inhibition at 4 µg/disc stood at 9 mm in assay [1] and 23 mm in the assay with Streptomyces scabiei [2]. The “diameter of the inhibition zone (DIZ)” value (with Streptomyces alboniger [3]; in [4]; with Streptomyces alboniger [5]; in assay [6]; in the assay on Streptomyces scabiei [7]; in the assay with Streptomyces alboniger [8]) was “inactive” throughout. In addition, in the assay with Streptomyces scabiei [9], the zone of inhibition at 0.4 µg/disc was 10 mm.
